Consider 40 compounds from ChEMBL document CHEMBL4346765, “Design, synthesis and biological evaluation of novel dithiocarbamate-substituted diphenylaminopyrimidine derivatives as BTK inhibitors” (Bioorg Med Chem, 2019).

One assay relates to Raji. Nature of the assay: Antiproliferative activity against human Raji cells assessed as reduction in cell growth incubated for 48 hrs by MTS assay.
In the next assay the test system is Ramos. Description: Antiproliferative activity against human Ramos cells assessed as reduction in cell growth incubated for 48 hrs by MTS assay. On the technique in general: Tetrazolium assays rely on reduction of a dye to a coloured formazan, in cell work by metabolically active cells.
Assay [1] addresses Tyrosine-protein kinase BTK (Homo sapiens, UniProt Q06187). Description: Inhibition of human recombinant full length BTK expressed in baculovirus in Sf9 insect cells using Poly (4:1 Glu, Tyr) as substrate incubated for 1 hr by ADP-Glo assay. For orientation: ADP-Glo turns the ADP formed in a reaction into a luminescent signal.

Tyrosine-protein kinase BTK, sequence (Q06187 whole entry): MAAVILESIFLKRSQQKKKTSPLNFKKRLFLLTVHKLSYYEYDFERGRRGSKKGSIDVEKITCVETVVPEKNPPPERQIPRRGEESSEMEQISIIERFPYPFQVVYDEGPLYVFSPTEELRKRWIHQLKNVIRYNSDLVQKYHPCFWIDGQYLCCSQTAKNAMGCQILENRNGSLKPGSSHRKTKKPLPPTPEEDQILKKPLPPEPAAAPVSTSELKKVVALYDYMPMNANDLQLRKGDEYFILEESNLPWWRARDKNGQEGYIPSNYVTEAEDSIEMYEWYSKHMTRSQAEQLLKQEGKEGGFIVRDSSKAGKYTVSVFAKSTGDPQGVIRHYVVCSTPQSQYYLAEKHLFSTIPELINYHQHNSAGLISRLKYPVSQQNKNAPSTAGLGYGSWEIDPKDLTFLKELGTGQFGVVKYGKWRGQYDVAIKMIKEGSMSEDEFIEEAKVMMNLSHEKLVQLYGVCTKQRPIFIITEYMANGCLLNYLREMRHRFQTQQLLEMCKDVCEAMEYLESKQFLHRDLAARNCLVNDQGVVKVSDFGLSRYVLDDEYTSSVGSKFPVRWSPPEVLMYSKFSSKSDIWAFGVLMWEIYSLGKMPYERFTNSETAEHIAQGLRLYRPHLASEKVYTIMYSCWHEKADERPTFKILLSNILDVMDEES

As to `C=CC(=O)Nc1cccc(Nc2nc(Nc3ccc(OCCSC(=S)N4CCN(CCO)CC4)cc3)ncc2F)c1`, the IC50 is 7.76 µM in the assay with Raji, 3.74 µM with Ramos and 0.0683 µM in assay [1].
Take `C=CC(=O)Nc1cccc(Nc2nc(Nc3ccc(OCCSC(=S)N4CC(C)OC(C)C4)cc3)ncc2F)c1` (centres undefined): the IC50 with Raji turned out to be 6.13 µM; in the assay on Ramos it was 2.29 µM; in assay [1] it was 0.0271 µM.
Regarding `C=CC(=O)Nc1cccc(Nc2nc(Nc3ccc(OCCSC(=S)N(CC)CC)cc3)ncc2F)c1`, the IC50 in the assay on Raji was determined as 13.7 µM; with Ramos, 3.54 µM; in assay [1], 0.0233 µM.
In the case of `C=CC(=O)Nc1cccc(Nc2nc(Nc3ccc(OCCSC(=S)NCc4ccc(C#N)cc4)cc3)ncc2F)c1`, the figures for the IC50 (with Raji; in the assay with Ramos; in assay [1]) were 1.22 µM, 1.03 µM and 0.00858 µM, respectively.
Regarding `C=CC(=O)Nc1cccc(Nc2nc(Nc3ccc(OCCSC(=S)N4CCN(Cc5ccccc5)CC4)cc3)ncc2F)c1`, the results for the IC50 (in the assay with Raji; in the assay with Ramos; in assay [1]) were > 40 µM, 2.07 µM and 0.283 µM, respectively.
`C=CC(=O)Nc1cccc(Nc2nc(Nc3ccc(OCCSC(=S)N4CCN(C(C)C)CC4)cc3)ncc2F)c1`: the IC50 in the assay with Raji turned out to be 3.93 µM; in the assay with Ramos it was 1.02 µM; in assay [1], 0.0569 µM.
As to `C=CC(=O)Nc1cccc(Nc2nc(Nc3ccc(OCCSC(=S)N4CCN(C(=O)OC(C)(C)C)CC4)cc3)ncc2F)c1`, the figures for the IC50 (in the assay on Raji; with Ramos; in assay [1]) were > 40 µM, 14.5 µM and 0.264 µM, respectively.
In the case of `C=CC(=O)Nc1cccc(Nc2nc(Nc3ccc(OCCCSC(=S)N(C)C)cc3)ncc2F)c1`, the IC50 in the assay on Raji worked out at 4.98 µM; with Ramos it was 4.36 µM; in assay [1], 0.0139 µM.
Take `C=CC(=O)Nc1cccc(Nc2nc(Nc3ccc(OCCSC(=S)N4CCN(c5ccccc5)CC4)cc3)ncc2F)c1`: the IC50 was determined as 15 µM in the assay with Raji, 20.6 µM in the assay on Ramos and 0.386 µM in assay [1].
In the case of `C=CC(=O)Nc1cccc(Nc2nc(Nc3ccc(OCCCSC(=S)N4CCN(C(C)C)CC4)cc3)ncc2F)c1`, the values for the IC50 (in the assay with Raji; in the assay on Ramos; in assay [1]) were 8.25 µM, 1.36 µM and 0.0632 µM, respectively.
The matching figures for `C=CC(=O)Nc1cccc(Nc2nc(Nc3ccc(OCCCCSC(=S)NCc4cccnc4)cc3)ncc2F)c1`: 1.05 µM, 1.49 µM and 0.0165 µM.
In the case of `C=CC(=O)Nc1cccc(Nc2nc(Nc3ccc(OCCSC(=S)NC)cc3)ncc2F)c1`, the IC50 in the assay with Raji came out at 7.17 µM; in the assay on Ramos, 5.94 µM; in assay [1], 0.00821 µM.
With `C=CC(=O)Nc1cccc(Nc2nc(Nc3ccc(OCCSC(=S)NCc4cc(OC)c(OC)c(OC)c4)cc3)ncc2F)c1`, the values for the IC50 (in the assay with Raji; with Ramos; in assay [1]) were 0.561 µM, 2.25 µM and 0.0486 µM, respectively.
Regarding `C=CC(=O)Nc1cccc(Nc2nc(Nc3ccc(OCCSC(=S)N(C)C)cc3)ncc2F)c1`, the values for the IC50 (in the assay on Raji; in the assay with Ramos; in assay [1]) were 13.8 µM, 9.53 µM and 0.00144 µM, respectively.
In the case of `C=CC(=O)Nc1cccc(Nc2nc(Nc3ccc(OCCCCSC(=S)N4CCN(C(C)C)CC4)cc3)ncc2F)c1`, the IC50 in the assay with Raji came to 4.45 µM; with Ramos, 2.92 µM; in assay [1], 0.131 µM.
For `C=CC(=O)Nc1cccc(Nc2nc(Nc3ccc(OCCSC(=S)N4CCc5ccccc5C4)cc3)ncc2F)c1`, the IC50 was > 40 µM in the assay with Raji, > 40 µM with Ramos and > 0.5 µM in assay [1].
In the case of `C=CC(=O)Nc1cccc(Nc2nc(Nc3ccc(OCCSC(=S)NC4CC4)cc3)ncc2F)c1`, the IC50 in the assay on Raji was 6.29 µM; with Ramos, 5.09 µM; in assay [1], 0.0025 µM.
Turning to `C=CC(=O)Nc1cccc(Nc2nc(Nc3ccc(OCCSC(=S)N4CCCC4)cc3)ncc2F)c1`, the results for the IC50 (in the assay with Raji; in the assay with Ramos; in assay [1]) were 15.3 µM, 2.97 µM and 0.154 µM, respectively.
`C=CC(=O)Nc1cccc(Nc2nc(Nc3ccc(OCCSC(=S)N4CCN(C)CC4)cc3)ncc2F)c1`: the IC50 was found to be 3.9 µM in the assay on Raji, 1.9 µM in the assay on Ramos and 0.0356 µM in assay [1].
As to `C=CC(=O)Nc1cccc(Nc2nc(Nc3ccc(OCCSC(=S)N4CCN(C(C)=O)CC4)cc3)ncc2F)c1`, the results for the IC50 (in the assay with Raji; in the assay with Ramos; in assay [1]) were 3.53 µM, 2.76 µM and 0.0803 µM, respectively.
Take `C=CC(=O)Nc1cccc(Nc2nc(Nc3ccc(OCCSC(=S)NCc4ccccn4)cc3)ncc2F)c1`: the IC50 was determined as 10.3 µM in the assay with Raji, 2.67 µM in the assay on Ramos and 0.0185 µM in assay [1].
With `C=CCNC(=S)SCCOc1ccc(Nc2ncc(F)c(Nc3cccc(NC(=O)C=C)c3)n2)cc1`, the IC50 in the assay on Raji was 13.3 µM; in the assay on Ramos, 4.32 µM; in assay [1], 0.0917 µM.
Regarding `C=CC(=O)Nc1cccc(Nc2nc(Nc3ccc(OCCSC(=S)NCc4ccc(OC)cc4)cc3)ncc2F)c1`, the IC50 with Raji was found to be 1.28 µM; with Ramos, 3.22 µM; in assay [1], 0.00568 µM.
The matching figures for `C=CC(=O)Nc1cccc(Nc2nc(Nc3ccc(OCCCCSC(=S)N(C)C)cc3)ncc2F)c1`: 10.2 µM, 15.4 µM and 0.0354 µM.
Taken in the same sequence, the figures for `C=CC(=O)Nc1cccc(Nc2nc(Nc3ccc(OCCSC(=S)NCc4ccccc4)cc3)ncc2F)c1` were 2.22 µM, 1.38 µM and 0.0108 µM.
Take `C=CC(=O)Nc1cccc(Nc2nc(Nc3ccc(OCCCSC(=S)NCc4cccnc4)cc3)ncc2F)c1`: the IC50 came out at 1.02 µM in the assay on Raji, 1.42 µM with Ramos and 0.00239 µM in assay [1].
Regarding `C=CC(=O)Nc1cccc(Nc2nc(Nc3ccc(OCCSC(=S)N4CCOCC4)cc3)ncc2F)c1`, the figures for the IC50 (in the assay with Raji; in the assay with Ramos; in assay [1]) were 4.24 µM, 2.87 µM and 0.0299 µM, respectively.
Take `C=CC(=O)Nc1cccc(Nc2nc(Nc3ccc(OCCSC(=S)N4CCCCC4)cc3)ncc2F)c1`: the IC50 came to 13.4 µM in the assay with Raji, 7.65 µM with Ramos and 0.0836 µM in assay [1].
With `C=CC(=O)Nc1cccc(Nc2nc(Nc3ccc(OCCSC(=S)NCC)cc3)ncc2F)c1`, the figures for the IC50 (in the assay on Raji; in the assay on Ramos; in assay [1]) were 8.64 µM, 3.44 µM and 0.015 µM, respectively.
With `C=CC(=O)Nc1cccc(Nc2nc(Nc3ccc(OCCSC(=S)NCc4cccc(F)c4)cc3)ncc2F)c1`, the IC50 in the assay on Raji turned out to be 1.15 µM; in the assay on Ramos, 1.24 µM; in assay [1], 0.0069 µM.
The matching figures for `C=CC(=O)Nc1cccc(Nc2nc(Nc3ccc(OCCSC(=S)NC4CCCCC4)cc3)ncc2F)c1`: 9.75 µM, 9.46 µM and 0.115 µM.
Consider `C=CC(=O)Nc1cccc(Nc2nc(Nc3ccc(NC(=O)CCSC(=S)NCc4cccnc4)cc3)ncc2F)c1`, for which the IC50 in the assay on Raji was determined as 0.34 µM; in the assay with Ramos, 1.22 µM; in assay [1], 0.0237 µM.
Turning to `C=CC(=O)Nc1cccc(Nc2nc(Nc3ccc(OCCSC(=S)N(C)Cc4cccnc4)cc3)ncc2F)c1`, the IC50 in the assay on Raji came to 4.84 µM; with Ramos, 2.73 µM; in assay [1] it was 0.0307 µM.
Take `C=CC(=O)Nc1cccc(Nc2nc(Nc3ccc(OCCSC(=S)NC(C)C)cc3)ncc2F)c1`: the IC50 in the assay on Raji worked out at 9.58 µM; in the assay on Ramos it was 9.31 µM; in assay [1], 0.0982 µM.
For `C=CC(=O)N1CCC[C@@H](n2nc(-c3ccc(Oc4ccccc4)cc3)c3c(N)ncnc32)C1` [IBRUTINIB], the IC50 in the assay with Raji stood at 17.7 µM; with Ramos, 1.88 µM.
As to `C=CC(=O)Nc1cccc(Nc2nc(Nc3ccc(NC(=O)CSC(=S)NCc4cccnc4)cc3)ncc2F)c1`, the IC50 stood at 0.31 µM in the assay with Raji, 1.13 µM in the assay with Ramos and 0.0184 µM in assay [1].
Turning to `C=CC(=O)Nc1cccc(Nc2nc(Nc3ccc(OCCSC(=S)N(CCCC)CCCC)cc3)ncc2F)c1`, the IC50 in the assay on Raji came to 20.9 µM; in the assay with Ramos, 9.21 µM; in assay [1], 0.125 µM.
For the compound `C=CC(=O)Nc1cccc(Nc2nc(Nc3ccc(OCCSC(=S)NCc4cnccn4)cc3)ncc2F)c1`, the figures for the IC50 (in the assay with Raji; in the assay with Ramos; in assay [1]) were 6.57 µM, 4.42 µM and 0.00849 µM, respectively.
`C=CC(=O)Nc1cccc(Nc2nc(Nc3ccc(OCCSC(=S)N(CCC)CCC)cc3)ncc2F)c1`: the results for the IC50 (in the assay on Raji; in the assay with Ramos; in assay [1]) were > 40 µM, > 40 µM and 0.241 µM, respectively.
`C=CC(=O)Nc1cccc(Nc2nc(Nc3ccc(OCCSC(=S)NCc4ccncc4)cc3)ncc2F)c1`: the values for the IC50 (in the assay on Raji; in the assay with Ramos; in assay [1]) were 0.501 µM, 0.574 µM and 0.00736 µM, respectively.

The IC50 is the concentration that inhibits the measured activity by half.
